Measured values: ChEMBL document CHEMBL3217509, “Discovery of an HIV integrase inhibitor with an excellent resistance profile” (Medchemcomm, 2013)
Active and inactive are the calls of the source. No cut-off for these calls is given here.

Columns and labels:
[1] = system: Human immunodeficiency virus 1; experiment: Antiviral activity against HIV1 HT92599 infected in human PBMC after 5 days by human JC53BL cell-based beta-galactosidase reporter gene assay; type: functional, organism-based; conditions: Human immunodeficiency virus 1, HT92599, JC53BL, 120 h
[2] = system: Human immunodeficiency virus 1; experiment: Resistance ratio of IC50 for MLV pseudotyped HIV1 NL4-3 expressing integrase V72I/F121Y/T125K mutant to IC50 for MLV pseudotyped HIV1 NL4-3 expressing wild type integrase; type: functional
[3] = Clearance in rat hepatocytes assessed per million of cells; type: ADME, cell-based, Hepatocyte; conditions: read-out: CLH
[4] = Clearance in healthy human at 100 ug, iv; type: ADME, organism-based; conditions: in vivo
[5] = system: Human immunodeficiency virus 1; experiment: Antiviral activity against HIV1 ZA97003 infected in human PBMC after 5 days by human JC53BL cell-based beta-galactosidase reporter gene assay; type: functional, organism-based; conditions: Human immunodeficiency virus 1, ZA97003, JC53BL, 120 h
[6] = system: Human immunodeficiency virus 1; experiment: Resistance ratio of IC50 for MLV pseudotyped HIV1 NL4-3 expressing integrase E92Q/N155H mutant to IC50 for MLV pseudotyped HIV1 NL4-3 expressing wild type integrase; type: functional
[7] = system: Human immunodeficiency virus 1; experiment: Resistance ratio of IC50 for MLV pseudotyped HIV1 NL4-3 expressing integrase Q148H mutant to IC50 for MLV pseudotyped HIV1 NL4-3 expressing wild type integrase; type: functional
[8] = system: Human immunodeficiency virus 1; experiment: Antiviral activity against HIV1 UG92037 infected in human PBMC after 5 days by human JC53BL cell-based beta-galactosidase reporter gene assay; type: functional, organism-based; conditions: Human immunodeficiency virus 1, UG92037, JC53BL, 120 h
[9] = Lipophilicity, log D of the compound; type: physicochemical; conditions: octanol/water
[10] = Intrinsic clearance in human liver microsomes assessed per mg of protein by LC-MS/MS analysis in presence of UDPGA; type: ADME; conditions: read-out: CLH
[11] = system: Human immunodeficiency virus 1; experiment: Resistance ratio of IC50 for MLV pseudotyped HIV1 NL4-3 expressing integrase F121Y mutant to IC50 for MLV pseudotyped HIV1 NL4-3 expressing wild type integrase; type: functional
[12] = Half life in healthy human at 100 ug, iv; type: ADME, organism-based; conditions: in vivo
[13] = Plasma protein binding in rat; type: ADME, cell-free; conditions: read-out: PPB
[14] = Inhibition of DNA polymerase beta (unknown origin); set-up: species or system Homo sapiens
[15] = system: Rattus norvegicus; experiment: Toxicity in rat assessed as histopathological abnormalities at 25 times antiviral IC50 administered for 7 days; type: organism-based; conditions: in vivo, 168 h
[16] = system: Human immunodeficiency virus 1; experiment: Resistance ratio of IC50 for MLV pseudotyped HIV1 NL4-3 expressing integrase Q148K mutant to IC50 for MLV pseudotyped HIV1 NL4-3 expressing wild type integrase; type: functional
[17] = system: Human immunodeficiency virus 1; experiment: Resistance ratio of IC50 for MLV pseudotyped HIV1 NL4-3 expressing integrase N155H mutant to IC50 for MLV pseudotyped HIV1 NL4-3 expressing wild type integrase; type: functional
[18] = system: Human immunodeficiency virus 1; experiment: Antiviral activity against HIV1 NL4-3 infected in human MT2 cells after 3 days by human JC53BL cell-based beta-galactosidase reporter gene assay; type: functional, organism-based; conditions: Human immunodeficiency virus 1, NL4-3, JC53BL, 72 h
[19] = Half life in dog at 0.1 mg/kg, iv; type: ADME, organism-based, Canis lupus familiaris; set-up: dose 0.1 mg/kg, route intravenous; conditions: in vivo
[20] = Inhibition of DNA polymerase alpha (unknown origin); set-up: species or system Homo sapiens
[21] = system: Human immunodeficiency virus 1; experiment: Antiviral activity against HIV1 HT92596 infected in human PBMC after 5 days by human JC53BL cell-based beta-galactosidase reporter gene assay; type: functional, organism-based; conditions: Human immunodeficiency virus 1, HT92596, JC53BL, 120 h
[22] = system: Human immunodeficiency virus 1; experiment: Antiviral activity against HIV1 UG94118 infected in human PBMC after 5 days by human JC53BL cell-based beta-galactosidase reporter gene assay; type: functional, organism-based; conditions: Human immunodeficiency virus 1, UG94118, JC53BL, 120 h
[23] = Selectivity ratio of CC50 for HIV1 NL4-3 infected in human MT2 cells to IC50 for human MT2 cells; type: ADME, cell-based; conditions: read-out: Ratio CC50/IC50
[24] = Volume of distribution at steady state in healthy human at 100 ug, iv; type: ADME, organism-based; conditions: in vivo, read-out: Vdss
[25] = Partition coefficient, pKa of the compound; type: physicochemical; conditions: octanol/water
[26] = system: Human immunodeficiency virus 1; experiment: Antiviral activity against HIV1 CMU06 infected in human PBMC after 5 days by human JC53BL cell-based beta-galactosidase reporter gene assay; type: functional, organism-based; conditions: Human immunodeficiency virus 1, CMU06, JC53BL, 120 h
[27] = Plasma protein binding in dog; type: ADME, cell-free, Canis lupus familiaris; conditions: read-out: PPB (converted)
[28] = Clearance in dog liver microsomes assessed per mg of protein in presence of UDPGA; type: ADME, Canis lupus familiaris; conditions: read-out: CLH
[29] = Clearance in rat liver microsomes assessed per mg of protein in presence of UDPGA; type: ADME; conditions: read-out: CLH
[30] = system: Canis familiaris; experiment: Clearance in dog at 0.1 mg/kg, iv; type: ADME, organism-based, Canis lupus familiaris; set-up: dose 0.1 mg/kg, route intravenous; conditions: in vivo
[31] = system: Human immunodeficiency virus 1; experiment: Resistance ratio of IC50 for MLV pseudotyped HIV1 NL4-3 expressing integrase E92Q mutant to IC50 for MLV pseudotyped HIV1 NL4-3 expressing wild type integrase; type: functional
[32] = system: Human immunodeficiency virus 1; experiment: Resistance ratio of IC50 for MLV pseudotyped HIV1 NL4-3 expressing integrase T97A mutant to IC50 for MLV pseudotyped HIV1 NL4-3 expressing wild type integrase; type: functional
[33] = Half life in rat at 2 mg/kg, po and 2 mg/kg, iv; type: ADME, organism-based; conditions: in vivo
[34] = system: Human immunodeficiency virus 1; experiment: Resistance ratio of IC50 for MLV pseudotyped HIV1 NL4-3 expressing integrase V72I/F121Y/T125K/V151L mutant to IC50 for MLV pseudotyped HIV1 NL4-3 expressing wild type integrase; type: functional
[35] = Clearance in dog hepatocytes assessed per million of cells; type: ADME, cell-based, Canis lupus familiaris, Hepatocyte; conditions: read-out: CLH
[36] = system: Human immunodeficiency virus 1; experiment: Inhibition of MLV pseudotyped HIV1 NL4-3 expressing integrase G140S/Q148K mutant; type: functional, organism-based
[37] = system: Rattus norvegicus; experiment: Clearance in rat at 2 mg/kg, po and 2 mg/kg, iv; type: ADME, organism-based; conditions: in vivo
[38] = system: Human immunodeficiency virus 1; experiment: Resistance ratio of IC50 for MLV pseudotyped HIV1 NL4-3 expressing integrase G140A mutant to IC50 for MLV pseudotyped HIV1 NL4-3 expressing wild type integrase; type: functional
[39] = system: Human immunodeficiency virus 1; experiment: Resistance ratio of IC50 for MLV pseudotyped HIV1 NL4-3 expressing integrase T66I/S153Y mutant to IC50 for MLV pseudotyped HIV1 NL4-3 expressing wild type integrase; type: functional
[40] = system: Human immunodeficiency virus 1; experiment: Antiviral activity against HIV1 NL4-3 infected in human PBMC after 5 days by human JC53BL cell-based beta-galactosidase reporter gene assay; type: functional, organism-based; conditions: Human immunodeficiency virus 1, NL4-3, JC53BL, 120 h
[41] = system: Human immunodeficiency virus 1; experiment: Resistance ratio of IC50 for MLV pseudotyped HIV1 NL4-3 expressing integrase T125K/F121Y mutant to IC50 for MLV pseudotyped HIV1 NL4-3 expressing wild type integrase; type: functional
[42] = system: Human immunodeficiency virus 1; experiment: Resistance ratio of IC50 for MLV pseudotyped HIV1 NL4-3 expressing integrase S153Y mutant to IC50 for MLV pseudotyped HIV1 NL4-3 expressing wild type integrase; type: functional
[43] = Volume of distribution at steady state in rat at 2 mg/kg, po and 2 mg/kg, iv; type: ADME, organism-based; conditions: in vivo, read-out: Vdss
[44] = system: Human immunodeficiency virus 1; experiment: Antiviral activity against HIV1 BR92004 infected in human PBMC after 5 days by human JC53BL cell-based beta-galactosidase reporter gene assay; type: functional, organism-based; conditions: Human immunodeficiency virus 1, BR92004, JC53BL, 120 h
[45] = Activity at UGT1A2 (unknown origin) assessed as metabolite metabolism; type: ADME; conditions: human
[46] = system: Human immunodeficiency virus 1; experiment: Antiviral activity against HIV1 SF162 infected in human PBMC after 5 days by human JC53BL cell-based beta-galactosidase reporter gene assay; type: functional, organism-based; conditions: Human immunodeficiency virus 1, SF162, JC53BL, 120 h
[47] = system: Human immunodeficiency virus 1; experiment: Resistance ratio of IC50 for MLV pseudotyped HIV1 NL4-3 expressing integrase G140S/Q148h mutant to IC50 for MLV pseudotyped HIV1 NL4-3 expressing wild type integrase; type: functional
[48] = Drug metabolism in iv dosed dog urine; type: ADME, organism-based, Canis lupus familiaris; conditions: in vivo
[49] = Oral bioavailability in rat at 2 mg/kg; type: ADME, organism-based; conditions: in vivo
[50] = Clearance in rat liver microsomes assessed per mg of protein; type: ADME; conditions: read-out: CLH
[51] = Intrinsic clearance in human liver microsomes assessed per mg of protein by LC-MS/MS analysis; type: ADME; conditions: read-out: CLH
[52] = system: Human immunodeficiency virus 1; experiment: Antiviral activity against HIV1 infected in human MT2 cells assessed as emergence of breakthrough at 10 times IC50; type: functional, organism-based
[53] = system: Human immunodeficiency virus 1; experiment: Resistance ratio of IC50 for MLV pseudotyped HIV1 NL4-3 expressing integrase G140S mutant to IC50 for MLV pseudotyped HIV1 NL4-3 expressing wild type integrase; type: functional
[54] = system: Human immunodeficiency virus 1; experiment: Antiviral activity against HIV1 BaL infected in human PBMC after 5 days by human JC53BL cell-based beta-galactosidase reporter gene assay; type: functional, organism-based; conditions: Human immunodeficiency virus 1, BaL, 120 h
[55] = target: Human immunodeficiency virus type 1 integrase (Human immunodeficiency virus 1, UniProt Q7ZJM1); experiment: Inhibition of HIV1 HXB2 full length amino terminal 6-HIs tagged integrase expressed in Escherichia coli using [3H]thymidine-labeled DNA/biotinylated ds-DNA as substrate assessed as inhibition of strand transfer after 50 mins by scintillation proximity assay
Sequence of Human immunodeficiency virus type 1 integrase (Q7ZJM1 whole entry): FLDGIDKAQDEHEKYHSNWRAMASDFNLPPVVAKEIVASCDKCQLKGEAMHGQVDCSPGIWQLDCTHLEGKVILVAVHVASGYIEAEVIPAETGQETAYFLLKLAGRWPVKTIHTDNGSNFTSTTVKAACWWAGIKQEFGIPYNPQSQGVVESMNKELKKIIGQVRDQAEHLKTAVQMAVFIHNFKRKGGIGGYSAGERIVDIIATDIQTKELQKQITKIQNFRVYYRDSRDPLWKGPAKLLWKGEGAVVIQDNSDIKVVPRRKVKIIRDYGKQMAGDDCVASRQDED

[56] = Intrinsic clearance in human hepatocytes assessed assessed per million of cells by LC-MS/MS analysis; type: ADME, cell-based, Hepatocyte; conditions: read-out: CLH
[57] = Plasma protein binding in human; type: ADME, cell-free; conditions: read-out: PPB (converted)
[58] = Inhibition of DNA polymerase gamma (unknown origin); set-up: species or system Homo sapiens
[59] = Volume of distribution at steady state in dog at 0.1 mg/kg, iv; type: ADME, organism-based, Canis lupus familiaris; set-up: dose 0.1 mg/kg, route intravenous; conditions: in vivo, read-out: Vdss
[60] = Cytotoxicity against human MT2 cells after 3 days by CellTitre-Glo assay; type: cell-based
[61] = system: Human immunodeficiency virus 1; experiment: Resistance ratio of IC50 for MLV pseudotyped HIV1 NL4-3 expressing integrase E138A mutant to IC50 for MLV pseudotyped HIV1 NL4-3 expressing wild type integrase; type: functional

## COc1cc(F)ccc1Cn1ccc2c3c(ncc21)C(=O)N(O)CC3 [PF-04776548]
[1]
  EC50: 0.37 nM
[2]
  Ratio IC50: <10
[3]
  hepatocyte CLint: 33 µL/min/1e6 cells
[4]
  clearance: 18 mL/min/kg
[5]
  EC50: 0.15 nM
[6]
  Ratio IC50: <10
[7]
  Ratio IC50: <10
[8]
  EC50: 0.84 nM
[9]
  logD: 2.1
[10]
  microsomal CLint: 28 µL/min/mg
[11]
  Ratio IC50: <10
[12]
  half-life: 2.8 h
[13]
  fraction unbound: 0.09
[14]
  IC50: > 100000 nM
[15]
  Activity: Non-toxic
[16]
  Ratio IC50: <10
[17]
  Ratio IC50: <10
[18]
  IC50: 1.5 nM
[19]
  half-life: 1.2 h
[20]
  IC50: > 100000 nM
[21]
  EC50: 0.84 nM
[22]
  EC50: 6.68 nM
[23]
  selectivity ratio: 4800
[24]
  Vd: 5.7 L/kg
[25]
  pKa: 7.6
[26]
  EC50: 0.61 nM
[27]
  fraction unbound: 0.16
[28]
  microsomal CLint: 21 µL/min/mg
[29]
  microsomal CLint: 43 µL/min/mg
[30]
  clearance: 24 mL/min/kg
[31]
  Ratio IC50: <10
[32]
  Ratio IC50: <10
[33]
  half-life: 0.3 h
[34]
  Ratio IC50: <10
[35]
  hepatocyte CLint: 17 µL/min/1e6 cells
[36]
  inhibition: inactive
[37]
  clearance: 98 mL/min/kg
[38]
  Ratio IC50: <10
[39]
  Ratio IC50: <10
[40]
  EC50: 0.48 nM
[41]
  Ratio IC50: <10
[42]
  Ratio IC50: <10
[43]
  Vd: 3 L/kg
[44]
  EC50: 0.44 nM
[45]
  Activity: Not Active
[46]
  EC50: 1.68 nM
[47]
  Ratio IC50: <10
[48]
  Drug metabolism: Active
[49]
  bioavailability: 1%
[50]
  microsomal CLint: 26 µL/min/mg
[51]
  microsomal CLint: 8.3 µL/min/mg
[52]
  Activity: Active
[53]
  Ratio IC50: <10
[54]
  EC50: 2.22 nM
[55]
  IC50: 40.5 nM
[56]
  hepatocyte CLint: 32.7 µL/min/1e6 cells
[57]
  fraction unbound: 0.08
[58]
  IC50: 7100 nM
[59]
  Vd: 2 L/kg
[60]
  CC50 at 72 h: 7360 nM
[61]
  Ratio IC50: <10

## Cc1cn([C@H]2C[C@H](N=[N+]=[N-])[C@@H](COP(=O)(O)OP(=O)(O)OP(=O)(O)O)O2)c(=O)[nH]c1=O [ZIDOVUDINE TRIPHOSPHATE]
[14]
  IC50: 1960 nM
[20]
  IC50: 7170 nM
[58]
  IC50: 3700 nM
